Results as given in patent US10519211B2, “Compounds as peptidic GLP1/glucagon/GIP receptor agonists” (SANOFI, priority 2016, dated 2019).
Numbered stars: 1 amine (or outer) side, 2 acyl side, 3 side chain; on linkers, the order of the positions; unused ones are H or OH. Square brackets hold non-standard residues; d marks the D form. Side chains are listed from the residue outwards. Peptide text beside a SMILES is read from it. * marks the point of attachment. γGlu = O=C(O)[C@H](CCC(=O)[*:2])N[*:1]; Palmitoyl = CCCCCCCCCCCCCCCC(=O)*; Aib = CC(C)(N)C(=O)O

Experiments:
[1] = Solubility assessment (UPLC-UV); assay type: physicochemical; settings: acetate buffer pH 4.5, 2.7 mg/ml m-cresol (buffer system A), target 10 mg/ml
Outline: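 Peptides at 10 mg/mL (purity-corrected, by UPLC/MS) in 100 mM acetate buffer pH 4.5 with 2.7 mg/ml m-Cresol, gently agitated 1 hour, then centrifuged 15 min at 2500 RCF. Supernatant, diluted 1:10, quantified by UPLC-UV peak area against a reference peptide standard curve, extinction-coefficient corrected.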

[2] = test system: female, diabetic db/db mice; assay: Acute effects after subcutaneous treatment on blood glucose in non-fasting diabetic db/db mice; assay type: in vivo, mouse; settings: for Blood glucose AUC compared to the Diabetic-Vehicle group: 24 h; for Plasma glucose area under the curve (mmol/L in 24 h): once 30 μg/kg s.c., mean ± SEM
Description: Female healthy, lean BKS.Cg-(lean)/OlaHsd and diabetes-prone, obese BKS.Cg-+Lepr^db/+Lepr^db/OlaHsd mice were ordered group housed from Envigo RMS Inc., shipped group housed and remained group housed in shoebox caging with wood chip bedding until day 15 of the predose phase. At the study start mice were approximately 12 weeks old.
Mice were housed under vivarium conditions including a 12 h light/dark cycle (light phase 04:00 AM-4:00 PM), room temperatures between 23-26° C. and a relative humidity between 30-70%. All animals had free access to water and Purina Fomulab Diet 5008.
On predose day 9 blood glucose and body mass (approximately between 08:00-10:00 AM) as well as HbA1c measurements were performed. On day 15 of the predose phase animals were assigned to treatment groups (n=8) and to new cages to match mean HbA1c and body masses between all db/db groups. An age-matched lean group was included in the study as a healthy, lean reference.
Prior to day 1 of the dosing phase, the test article was diluted with Phosphate Buffered Saline (PBS, Gibco, without CaCl2 and MgCl2) to a concentration of 1 mg/mL and aliquots of this stock solution were stored at approximately −60° C. On day 1 of the dosing phase the stock aliquot was thawed and the injected test article solution was prepared fresh by diluting it with PBS to achieve the desired concentration.
On Day 1 of the dosing phase db/db mice were either treated once with a s.c. injection of PBS-vehicle or 30 μg/kg test article. The lean reference group was treated once with a s.c. injection of PBS-vehicle. The dosing was initiated and completed between 08:00 and 10:00 AM. The applied volume was 5 ml/kg and the dose was adjusted to the most recent body mass recording of each individual.
Animals had unlimited access to water and feed during the experiment. On day 1 of the dosing phase approximately 5 μL of blood were collected via tail clips at minute −30 and 0 prior to any other inlife activities. At minute 0 mice received a s.c. dose of either PBS-vehicle or 30 μg/kg test article. Further blood samples were harvested at hour 0.25, 0.5, 1, 1.5, 2, 3, 4, 6, 8, and 24 post-dose. Glucose measurements were performed in whole blood using AlphaTRAK glucometers. If the glucose concentrations of two measurements differed by more than 20 mg/dL a third value was recorded. The Area Under the Curve (AUC) for blood glucose was calculated via the trapezoid method and for the duration of the 24 post-dose hours.
Data are depicted as means±SEM. […] A One-Way ANOVA and Tukey Test were used for pairwise multiple comparisons of all groups (n=8/group, deviations from group size are indicated). […] Data from a Non-Diabetic-Vehicle group serve as a reference dataset for the normoglycemic, lean state.
Female, 12 weeks old, healthy, lean BKS.Cg-(lean)/OlaHsd or diabetes-prone, obese BKS.Cg-+Leprdb/+Leprdb/OlaHsd mice were treated once with a s.c. injection of PBS, 30 μg/kg SEQ ID NO: 6 or 30 μg/kg SEQ ID NO: 7. The dosing was initiated and completed between 08:00 and 10:00 AM. The applied volume was 5 ml/kg and the dose was adjusted to the most recent body mass recording of each individual. Diabetic db/db mice were HbA1c- and body mass-matched. The lean reference group was treated once with a s.c. injection of PBS-vehicle.
Animals had unlimited access to water and feed during the experiment. On day 1 of the dosing phase approximately 5 μL of blood were collected via tail clips at minute −30 and 0 prior to any other inlife activities. At minute 0 mice received a s.c. dose of either PBS-vehicle, 30 μg/kg SEQ ID NO: 6 or SEQ ID NO: 7. Further blood samples were harvested at minute 15, 30, 60, 90, 120, 150, 180, 240, 360, and 480 post-dose. Glucose measurements were performed in whole blood using AlphaTRAK glucometers. If the glucose concentrations of two measurements differed by more than 20 mg/dL a third value was recorded. […]

[3] = 30 μg/kg s.c. once, fed db/db mice
[4] = 30 μg/kg s.c. once, fed db/db mice, in words

| Compound | solubility at 1 h [1] | Blood glucose AUC compared to the Diabetic-Vehicle group ([2]; 30 μg/kg s.c. once, in words) | Time post dose at which lowest blood glucose levels were reached [2, 3] | Blood glucose profile following single treatment [2, 4] | Mean blood glucose concentrations twenty four hours post-dose [2, 4] | Plasma glucose area under the curve (mmol/L in 24 h) ([2]; Table 12, fed db/db mice) | Plasma glucose area under the curve (mmol/L in 24 h) ([2]; Table 10, fed db/db mice) |
| --- | --- | --- | --- | --- | --- | --- | --- |
| CCCCCCCCCCCCCCCC(=O)N[C@@H](CCC(=O)N[C@@H](CCC(=O)NCCCC[C@H](NC(=O)[C@H](CC(C)C)NC(=O)[C@H](CCCCN)NC(=O)[C@H](CO)NC(=O)[C@H](CC(C)C)NC(=O)[C@H](CC(=O)O)NC(=O)[C@H](CO)NC(=O)[C@@H](NC(=O)[C@H](Cc1ccccc1)NC(=O)[C@@H](NC(=O)CNC(=O)[C@H](CCC(N)=O)NC(=O)C(C)(C)NC(=O)[C@@H](N)Cc1c[nH]cn1)[C@@H](C)O)[C@@H](C)O)C(=O)N[C@@H](CCC(=O)O)C(=O)N[C@@H](CCCCN)C(=O)N[C@@H](CCC(N)=O)C(=O)N[C@@H](CCCNC(=N)N)C(=O)N[C@@H](CCC(N)=O)C(=O)NC(C)(C)C(=O)N[C@@H](CCC(=O)O)C(=O)N[C@@H](Cc1ccccc1)C(=O)N[C@H](C(=O)N[C@@H](CCC(=O)O)C(=O)N[C@@H](Cc1c[nH]c2ccccc12)C(=O)N[C@@H](CC(C)C)C(=O)N[C@@H](CCCCN)C(=O)N[C@@H](C)C(=O)N[C@H](C)C(=O)NCC(=O)N[C@@H](Cc1c[nH]cn1)C(=O)N1CCC[C@H]1C(=O)N[C@@H](CO)C(=O)NC(C)(C)C(=O)N[C@@H](CCCCN)C(=O)N1CCC[C@H]1C(=O)N1CCC[C@H]1C(=O)N1CCC[C@H]1C(=O)N[C@@H](CCCCN)C(N)=O)[C@@H](C)CC)C(=O)O)C(=O)O [SEQ ID NO: 13, H-Aib-Q-G-T-F-T-S-D-L-S-K-L-K[gGlu-gGlu-Palm]-E-K-Q-R-Q-Aib-E-F-I-E-W-L-K-A-dAla-G-H-P-S-Aib-K-P-P-P-K-NH2] (H-H[Aib]QGTFTSDLSKLK([γGlu-γGlu-Palmitoyl])EKQRQ[Aib]EFIEWLKA[dA]GHPS[Aib]KPPPK-NH2) | > 9300 µg/mL | statistically significant reduction in the blood glucose AUC | approximately 8 hours | acute decrease in blood glucose concentrations | close to baseline | +458.34 ± 27.11 mmol/L in 24 h | – |
| CCCCCCCCCCCCCCCC(=O)N[C@@H](CCC(=O)N[C@@H](CCC(=O)NCCCC[C@H](NC(=O)[C@H](CC(C)C)NC(=O)[C@H](CCCCN)NC(=O)[C@H](CO)NC(=O)[C@H](CC(C)C)NC(=O)[C@H](CC(=O)O)NC(=O)[C@H](CO)NC(=O)[C@@H](NC(=O)[C@H](Cc1ccccc1)NC(=O)[C@@H](NC(=O)CNC(=O)[C@H](CCC(N)=O)NC(=O)C(C)(C)NC(=O)[C@@H](N)Cc1c[nH]cn1)[C@@H](C)O)[C@@H](C)O)C(=O)N[C@@H](CCC(=O)O)C(=O)N[C@@H](CCC(=O)O)C(=O)N[C@@H](CCC(N)=O)C(=O)N[C@@H](CCCNC(=N)N)C(=O)N[C@@H](CCC(N)=O)C(=O)NC(C)(C)C(=O)N[C@@H](CCC(=O)O)C(=O)N[C@@H](Cc1ccccc1)C(=O)N[C@H](C(=O)N[C@@H](CCC(=O)O)C(=O)N[C@@H](Cc1c[nH]c2ccccc12)C(=O)N[C@@H](CC(C)C)C(=O)N[C@@H](CCCCN)C(=O)N[C@@H](C)C(=O)NCC(=O)NCC(=O)N[C@@H](Cc1c[nH]cn1)C(=O)N1CCC[C@H]1C(=O)N[C@@H](CO)C(=O)NC(C)(C)C(=O)N[C@@H](CCCCN)C(=O)N1CCC[C@H]1C(=O)N1CCC[C@H]1C(=O)N1CCC[C@H]1C(=O)N[C@@H](CCCCN)C(N)=O)[C@@H](C)CC)C(=O)O)C(=O)O [SEQ ID NO: 8, H-Aib-Q-G-T-F-T-S-D-L-S-K-L-K[gGlu-gGlu-Palm]-E-E-Q-R-Q-Aib-E-F-I-E-W-L-K-A-G-G-H-P-S-Aib-K-P-P-P-K-NH2] | > 10000 µg/mL | – | – | – | – | – | – |
| CCCCCCCCCCCCCCCC(=O)N[C@@H](CCC(=O)N[C@@H](CCC(=O)NCCCC[C@H](NC(=O)[C@H](CC(C)C)NC(=O)[C@H](CCCCN)NC(=O)[C@H](CO)NC(=O)[C@H](CC(C)C)NC(=O)[C@H](CC(=O)O)NC(=O)[C@H](CO)NC(=O)[C@@H](NC(=O)[C@H](Cc1ccccc1)NC(=O)[C@@H](NC(=O)CNC(=O)[C@H](CCC(N)=O)NC(=O)C(C)(C)NC(=O)[C@@H](N)Cc1c[nH]cn1)[C@@H](C)O)[C@@H](C)O)C(=O)N[C@@H](CCC(=O)O)C(=O)N[C@@H](CCCCN)C(=O)N[C@@H](CCC(N)=O)C(=O)N[C@@H](CCCNC(=N)N)C(=O)N[C@@H](CCC(N)=O)C(=O)NC(C)(C)C(=O)N[C@@H](CCC(=O)O)C(=O)N[C@@H](Cc1ccccc1)C(=O)N[C@H](C(=O)N[C@@H](CCC(=O)O)C(=O)N[C@@H](Cc1c[nH]c2ccccc12)C(=O)N[C@@H](CC(C)C)C(=O)N[C@@H](CCCCN)C(=O)N[C@@H](C)C(=O)NCC(=O)NCC(=O)N1CCC[C@H]1C(=O)N1CCC[C@H]1C(=O)N[C@@H](CO)C(=O)NC(C)(C)C(=O)N[C@@H](CCCCN)C(=O)N1CCC[C@H]1C(=O)N1CCC[C@H]1C(=O)N1CCC[C@H]1C(=O)N[C@@H](CCCCN)C(N)=O)[C@@H](C)CC)C(=O)O)C(=O)O [SEQ ID NO: 6, H-Aib-Q-G-T-F-T-S-D-L-S-K-L-K[gGlu-gGlu-Palm]-E-K-Q-R-Q-Aib-E-F-I-E-W-L-K-A-G-G-P-P-S-Aib-K-P-P-P-K-NH2] | > 9600 µg/mL | statistically significant reduction in the blood glucose AUC | approximately 8 hours | acute decrease in blood glucose concentrations | – | – | +430.70 ± 26.41 mmol/L in 24 h |
| CCCCCCCCCCCCCCCC(=O)N[C@@H](CCC(=O)N[C@@H](CCC(=O)NCCCC[C@H](NC(=O)[C@H](CC(C)C)NC(=O)[C@H](CCCCN)NC(=O)[C@H](CO)NC(=O)[C@H](CC(C)C)NC(=O)[C@H](CC(=O)O)NC(=O)[C@H](CO)NC(=O)[C@@H](NC(=O)[C@H](Cc1ccccc1)NC(=O)[C@@H](NC(=O)CNC(=O)[C@H](CCC(N)=O)NC(=O)C(C)(C)NC(=O)[C@@H](N)Cc1c[nH]cn1)[C@@H](C)O)[C@@H](C)O)C(=O)N[C@@H](CCC(=O)O)C(=O)N[C@@H](CCCCN)C(=O)N[C@@H](CCC(N)=O)C(=O)N[C@@H](CCCNC(=N)N)C(=O)N[C@@H](CCC(N)=O)C(=O)NC(C)(C)C(=O)N[C@@H](CCC(=O)O)C(=O)N[C@@H](Cc1ccccc1)C(=O)N[C@H](C(=O)N[C@@H](CCC(=O)O)C(=O)N[C@@H](Cc1c[nH]c2ccccc12)C(=O)N[C@@H](CC(C)C)C(=O)N[C@@H](CCCCN)C(=O)N[C@@H](C)C(=O)N[C@H](C)C(=O)NCC(=O)N1CCC[C@H]1C(=O)N1CCC[C@H]1C(=O)N[C@@H](CO)C(=O)NC(C)(C)C(=O)N[C@@H](CCCCN)C(=O)N1CCC[C@H]1C(=O)N1CCC[C@H]1C(=O)N1CCC[C@H]1C(=O)N[C@@H](CCCCN)C(N)=O)[C@@H](C)CC)C(=O)O)C(=O)O [SEQ ID NO: 7, H-Aib-Q-G-T-F-T-S-D-L-S-K-L-K[gGlu-gGlu-Palm]-E-K-Q-R-Q-Aib-E-F-I-E-W-L-K-A-dAla-G-P-P-S-Aib-K-P-P-P-K-NH2] (H-H[Aib]QGTFTSDLSKLK([γGlu-γGlu-Palmitoyl])EKQRQ[Aib]EFIEWLKA[dA]GPPS[Aib]KPPPK-NH2) | > 9900 µg/mL | statistically significant reduction in the blood glucose AUC | approximately 8 hours | acute decrease in blood glucose concentrations | – | – | +461.54 ± 39.43 mmol/L in 24 h |
